Measurements taken from patent US5438117A, “Hexapeptides deriving from aglucoteicoplanin and a process for preparing them” (Gruppo Lepetit S.p.A., priority 1990, dated 1995).

Assays:
[1] = N. Pant et al and P. M. Booth et al; cited from earlier work
[2] = tested on: two strains of S. aureus and S. epidermidis low sensitive to teicoplanin; experiment: Activity relative to teicoplanin (from MIC); type: cell-based
Method: (§1) The antimicrobial activity, expressed as minimal inhibitory concentration (MIC), of the hexapeptide of formula (I), R=hydrogen, against selected strains of Gram-positive bacteria was determined in comparison with teicoplanin. The microdilution method in DIFCO TODDO-HEWITT broth (Streptococci) or OXOID ISO-SENSITEST broth (Staphylococci) was used.

Staph. epidermidis (TLS) = experiment: In vitro MIC, microdilution method in broth; type: cell-based; conditions: Staph. epidermidis (TLS = Low Sensitive to Teicoplanin); inoculum 10^5 cfu/ml; 18-24 hours at 37° C.
Method: as §1
(§2) TLS = Low Sensitive to Teicoplanin
(§3) *Inoculum: 10^5 cfu/ml.

Staph. aureus (TLS) = experiment: In vitro MIC, microdilution method in broth; type: cell-based; conditions: Staph. aureus (TLS = Low Sensitive to Teicoplanin); inoculum 10^5 cfu/ml; 18-24 hours at 37° C.
Method: as §1, §2, §3

[3] = tested on: Staph. haemolyticus clin. isolate (TLS); experiment: In vitro MIC, microdilution method in broth; type: cell-based; conditions: inoculum 10^5 cfu/ml, 18-24 hours at 37° C.
Method: as §1, §2, §3

[4] = tested on: Staph. epidermidis ATCC 12228; experiment: In vitro MIC, microdilution method in broth; type: cell-based; conditions: inoculum 10^5 cfu/ml, 18-24 hours at 37° C.
Method: as §1, §3

Strep. pneumoniae UC 41 = experiment: In vitro MIC, microdilution method in broth; type: cell-based; conditions: DIFCO TODDO-HEWITT broth, inoculum 10^5 cfu/ml, 18-24 hours at 37° C.
Method: as §1, §3

Strep. pyogenes C 203 = experiment: In vitro MIC, microdilution method in broth; type: cell-based; conditions: DIFCO TODDO-HEWITT broth, inoculum 10^5 cfu/ml, 18-24 hours at 37° C.
Method: as §1, §3

Staph. aureus Tour = experiment: In vitro MIC, microdilution method in broth; type: cell-based; conditions: OXOID ISO-SENSITEST broth, inoculum 10^5 cfu/ml, 18-24 hours at 37° C.
Method: as §1, §3

[5] = tested on: Entero. faecalis ATCC 7080; experiment: In vitro MIC, microdilution method in broth; type: cell-based; conditions: inoculum 10^5 cfu/ml, 18-24 hours at 37° C.
Method: as §1, §3

Substance | Biological activity [1] | Activity compared with teicoplanin [2] | MIC (Staph. epidermidis (TLS)) | MIC (Staph. aureus (TLS)) | MIC [3] | MIC [4] | MIC (Strep. pneumoniae UC 41) | MIC (Strep. pyogenes C 203) | MIC (Staph. aureus Tour) | MIC [5]
Aglucovancomycin Hexapeptide | inactivity |  |  |  |  |  |  |  |  | 
aglucoteicoplanin hexapeptide [Example 1] |  | four to sixteen times more active | 1 µg/mL | 2 µg/mL | 16 µg/mL | 0.5 µg/mL | 4 µg/mL | 8 µg/mL | 2 µg/mL | 8 µg/mL
teicoplanin |  |  | 16 µg/mL | 8 µg/mL | 16 µg/mL | 0.5 µg/mL | 0.063 µg/mL | 0.063 µg/mL | 0.5 µg/mL | 0.125 µg/mL
vancomycin hexapeptide | inactivity |  |  |  |  |  |  |  |  | 
